Numbered stars: 1 amine (or outer) side, 2 acyl side, 3 side chain; on linkers, the order of the positions; unused ones are H or OH. Square brackets hold non-standard residues; d marks the D form. Ends that are not written are not given here. Peptide text beside a SMILES is read from it. * marks the point of attachment. X3 = O=C([C@H](Cc1c[nH]cn1)N(Cc1ccc(Cl)cc1)[*:1])[*:2]; Fmoc = O=C(OCC1c2ccccc2-c2ccccc21)*
Key:
chicken gizzard Tpm = target: T1, chicken gizzard Tpm (Gallus gallus, UniProt P19352); experiment: Binding to immobilized Tpm in a 96 well plate (biotin-HKa competition or direct binding); conditions: 10 μM ZnCl2; for IC50: displacement of 10 nM biotinylated-HKa; for binding to immobilized Tpm / displacement of biotin-HKa (in words): 10 nM biotin-HKa, 200 ng chicken gizzard Tpm
T1 construct: purchased Sigma; host or cells: chicken gizzard (tissue-derived, as the name says)
T1 sequence (P19352 1-284 isoform P19352-2): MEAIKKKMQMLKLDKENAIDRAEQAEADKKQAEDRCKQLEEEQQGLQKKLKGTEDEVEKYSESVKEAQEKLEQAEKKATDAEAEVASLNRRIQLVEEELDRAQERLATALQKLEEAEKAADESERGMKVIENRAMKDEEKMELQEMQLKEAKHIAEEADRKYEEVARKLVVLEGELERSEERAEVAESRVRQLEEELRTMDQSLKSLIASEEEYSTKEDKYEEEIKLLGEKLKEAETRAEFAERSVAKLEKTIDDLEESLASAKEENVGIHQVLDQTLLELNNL
T1 sequence (P04268 1-284 isoform P04268-2 F73S/I172L/T199L/N203E/L204A partner): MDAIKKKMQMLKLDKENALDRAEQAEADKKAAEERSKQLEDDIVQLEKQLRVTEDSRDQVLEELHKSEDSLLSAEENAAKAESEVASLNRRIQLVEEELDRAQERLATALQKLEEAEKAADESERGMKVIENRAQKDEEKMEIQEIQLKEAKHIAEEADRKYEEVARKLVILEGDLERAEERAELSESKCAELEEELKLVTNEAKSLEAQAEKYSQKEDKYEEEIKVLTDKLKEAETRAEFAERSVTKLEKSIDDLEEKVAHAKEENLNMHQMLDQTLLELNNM
Method: Plates are coated at room temperature with chicken gizzard Tpm (Sigma) in Tris buffer-saline (TBS) (200 ng/well). After incubation for 2 hours, wells are washed with TBS, then 1% BSA/TBS/Tween-20 is added to each well and incubate at 37° C. for two hours. HKa (Enzyme Laboratories) that had been previously biotinylated with EZ-Link (Pierce) according to the manufacturers instructions, is added to the plate at a concentration of 10 nM together with ZnCl2 (10 μM) and the appropriate concentration of the protein, domain or peptide competitor. The plates are incubated at room temperature and then washed with TBS/Tween-20. Avidin-HRP is added, incubated for 20 minutes at room temperature, washed with TBS/Tween-20 and the chromogenic substrate is added. The reaction is stopped with sulfuric acid and the plate read at 490 nm.
(§1) The IC50 for the displacement of biotinylated-HKa for the peptides shown in Table 5 was determined as follows: 10 nM biotin-HKa is added to a 96 well plate previously coated with 200 ng of chicken gizzard Tpm in the presence of 10 μM ZnCl2. Increasing amounts of the peptides are added to the wells. The remaining biotin-HKa bound to Tpm was detected using avidin-HRP and a chromogenic substrate. A Kd was determined by non-linear regression analysis of the empirical data. The effect on the Matrigel Plug assay was determined as follows: Matrigel (0.5 mL) containing 400 ng/ml of bFGF, 50 μg/ml heparin with or without the peptide (300 μM) or saline buffer are injected in the flanks of a mouse. After five days, the plugs are removed and the plugs scanned.
The N-terminus of the pentapeptide HHPHG has been derivatized (capped) in an attempt to increase the pentapeptides' affinity to Tpm by increasing productive molecular contacts (or interactions). […] The IC50 for the displacement of biotinylated-HKa for the capped peptides shown in the table was determined as follows: 10 nM biotin-HKa was added to a 96 well plate previously coated with 200 ng of chicken gizzard Tpm in the presence of 10 μM ZnCl2. Increasing amounts of the peptides were added to the wells. The remaining biotin-HKa bound to Tpm was detected using avidin-HRP and a chromogenic substrate. A Kd was determined by non-linear regression analysis of the empirical data

MatLyLu cells = experiment: Matrigel/MatLyLu model (Matrigel plug with tumor cells); assay type: in vivo; conditions: 700 μM ATN230 or 900 μM ATN294, 2×10^6 MatLyLu cells in mouse flank, seven days
Excerpt: In this assay, tumor cells, for example 1-5×10^6 cells of the 3LL Lewis lung carcinoma or the rat prostate cell line MatLyLu, are mixed with Matrigel® and then injected into the flank of a mouse following the protocol described in Sec. B., above. A mass of tumor cells and a powerful angiogenic response can be observed in the plugs after about 5 to 7 days. The anti-tumor and anti-angiogenic action of a compound in an actual tumor environment can be evaluated by including it in the plug. Measurement is then made of tumor weight, Hb levels or fluorescence levels (of a dextran-fluorophore conjugate injected prior to sacrifice). To measure Hb or fluorescence, the plugs are first homogenize with a tissue homogenizer.

[1] = tested on: bFGF-induced angiogenesis; experiment: Matrigel plug assay (bFGF-induced angiogenesis); assay type: in vivo, mouse; conditions: 400 ng/ml bFGF, five days, plugs scanned; for Inhibits Angiogenesis (Matrigel ® assay): peptide 300 μM, 50 μg/ml heparin
Method: This assay is performed essentially as described by Passaniti et al. (Lab Invest. 67:519-528 (1992). Ice-cold Matrigel® (e.g., 500 μL) (Collaborative Biomedical Products, Inc., Bedford, Mass.) is mixed with heparin (e.g., 50 μg/ml), FGF-2 (e.g., 400 ng/ml) and the compound to be tested. In some assays, bFGF may be substituted with tumor cells as the angiogenic stimulus. The Matrigel® mixture is injected subcutaneously into 4-8 week-old athymic nude mice at sites near the abdominal midline, preferably 3 injections per mouse. The injected Matrigel® forms a palpable solid gel. Injection sites are chosen such that each animal receives a positive control plug (such as FGF-2+heparin), a negative control plug (e.g., buffer+heparin) and a plug that includes the compound being tested for its effect on angiogenesis, e.g., (FGF-2+heparin+compound). All treatments are preferably run in triplicate. Animals are sacrificed by cervical dislocation at about 7 days post injection or another time that may be optimal for observing angiogenesis. The mouse skin is detached along the abdominal midline, and the Matrigel® plugs are recovered and scanned immediately at high resolution. Plugs are then dispersed in water and incubated at 37° C. overnight. Hemoglobin (Hb) levels are determined using Drabkin's solution (e.g., obtained from Sigma) according to the manufacturers' instructions. The amount of Hb in the plug is an indirect measure of angiogenesis as it reflects the amount of blood in the sample. In addition, or alternatively, animals may be injected prior to sacrifice with a 0.1 ml buffer (preferably PBS) containing a high molecular weight dextran to which is conjugated a fluorophore. The amount of fluorescence in the dispersed plug, determined fluorimetrically, also serves as a measure of angiogenesis in the plug. Staining with mAb anti-CD31 (CD31 is “platelet-EC adhesion molecule or PECAM”) may also be used to confirm neovessel formation and microvessel density in the plugs.
as §1
These cyclic peptides were also tested for their ability to inhibit bFGF-induced angiogenesis in vivo in a Matrigel plug assay. Matrigel (0.5 mL) containing 400 ng/ml of bFGF, 50 μg/ml heparin with or without 10 μM peptide (ATN-310, ATN-311 or ATN-312 or saline buffer for the controls, was injected subcutaneously in the hind flanks of a mouse as described above. All the treatments were done in triplicate. After five days, the vascularization of the Matrigel plug was determined fluorometrically after i.v. injection of 100 μl of dextran conjugated with fluorescein isothiocyanate (FITC-dextran; MW 250,000, Sigma). Five days after injection, the plugs were removed and subjected to mincing of tissue which releases vascular FITC-dextran into the supernatant. Samples of supernatant were subjected to fluorimetry as a measure of vascularity of the plug. The amount of vasculature (neovessels) is directly proportional to the fluorescent signal which reflects the total vascular blood volume of the plug. The results are shown in Table 7, below and expressed as arbitrary fluorescence units or as % inhibition relative to the negative control.

[2] = target: T2, D5 domain of human kininogen, HKa (Homo sapiens, UniProt P01042); experiment: Binding to HKa D5 (affinity column)
T2 construct: made in house
T2 sequence (P01042 402-526): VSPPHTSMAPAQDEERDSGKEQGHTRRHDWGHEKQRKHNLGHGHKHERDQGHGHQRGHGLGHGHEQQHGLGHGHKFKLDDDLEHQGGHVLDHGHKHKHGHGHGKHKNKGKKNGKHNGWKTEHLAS
Method: Chicken gizzard Tpm was partially digested with Chymotrypsin as described for FIG. 19 for 100 minutes so that a 20 kDa fragment was enriched. HK-D5 had previously immobilized in an activated Sepharose (CNBr-activated Sepharose 4 B, Amersham Biosciences). The chymotryptic fragments were incubated with the HK-D5-Sepharose resin in TBS containing 10 μM ZnCl2, washed extensively in the same buffer and eluted in 2 M NaCl. The samples were run in a 10% NuPage gel (Invitrogen).
The present inventors discovered the AALBP by passing a chymotryptic digest of cTPM1 over an affinity column comprising an antiangiogenic polypeptide, specifically, the D5 domain of human kininogen, HKa. Material that bound to the column was subjected to N-terminal sequencing. The sequence was determined to be SESVKEAQE, corresponding to residues 61-69 of cTPM1 (SEQ ID NO: 1) and residues 1-9 of SEQ ID NO:2.
The fragment was partially purified by passing the chymotryptic digest through an affinity column of Sepharose-HKa-D5. The column was extensively washed and eluted with high salt buffer. The resulting material was run on an SDS gel which appears in (FIG. 20). […]

[3] = Table 6, N-capped HHPHG peptides

## O=C(O)CNC(=O)[C@H](Cc1c[nH]cn1)NC(=O)[C@@H]1CCCN1C(=O)[C@H](Cc1c[nH]cn1)NC(=O)[C@H](Cc1c[nH]cn1)NCc1ccc(Cl)cc1 [ATN-276.000.01, 4-Chlorobenzyl] (H-[X3]HPHG-OH)
Chicken gizzard Tpm; [3]
  IC50: 23 µM

## O=C(O)CNC(=O)[C@H](Cc1c[nH]cn1)NC(=O)[C@@H]1CCCN1C(=O)[C@H](Cc1c[nH]cn1)NC(=O)[C@H](Cc1c[nH]cn1)NC(=O)OCC1c2ccccc2-c2ccccc21 [ATN-278.000.01, Fmoc] (Fmoc-HHPHG-OH; C-terminus assumed)
Chicken gizzard Tpm; [3]
  IC50: 55 µM

## AHPHG [ATN294]
Chicken gizzard Tpm
  binding to immobilized Tpm / displacement of biotin-HKa (in words): abolished
MatLyLu cells
  inhibition of MatLyLu growth, plug weight (in words): not
MatLyLu cells; listed as AHPHG
  inhibition of MatLyLu growth, plug weight (in words): significantly less anti-tumor activity

## APPHG [ATN246, APPHG]
Chicken gizzard Tpm; Table 5
  IC50: > 10000 µM

## Ac-HHPHG [ATN269, c-HHPHG]
Chicken gizzard Tpm; Table 5
  IC50: > 10000 µM

## Ac-HHPHG-NH2 [ATN239, c-HHPHG-c]
Chicken gizzard Tpm; Table 5
  IC50: > 10000 µM

## Ac-HPPHG-NH2 [ATN231, c-HPPHG-c]
Chicken gizzard Tpm; Table 5
  IC50: > 10000 µM

## Ac-PPPHG-NH2 [ATN229, c-PPPHG-c]
Chicken gizzard Tpm; Table 5
  IC50: > 10000 µM

## HHPHG [ATN230, HHPHG]
[1]
  Inhibits Angiogenesis (Matrigel ® assay): Yes
[1]; listed as HHPHG
  Inhibits Angiogenesis (Matrigel ® assay): substantial activity
MatLyLu cells
  inhibition of MatLyLu growth, plug weight (in words): inhibited MatLyLu growth
MatLyLu cells; listed as HHPHG
  inhibition of MatLyLu growth, plug weight (in words): anti-tumor activity

## HKNKGKKN [ATN16, HKNKGKKN]
[1]
  Inhibits Angiogenesis (Matrigel ® assay): Yes
Chicken gizzard Tpm; Table 5
  IC50: 99.5 µM

## HPPHG [ATN228, HPPHG]
[1]; 20 μg peptide
  inhibition of angiogenesis in the Matrigel plug model (in words): inhibited angiogenesis
[1]
  Inhibits Angiogenesis (Matrigel ® assay): Yes
Chicken gizzard Tpm
  binding to immobilized Tpm / displacement of biotin-HKa (in words): bound

## PPPHG [ATN227, PPPHG]
Chicken gizzard Tpm; Table 5
  IC50: > 10000 µM

## SEQ ID NO:2: chymotryptic fragment, residues 61-214 of chicken gizzard cTPM1, about 17 kDa
[2]
  binding to HKa D5 (in words): binds

## TRRHDWGH [ATN232, TRRHDWGH]
[1]
  Inhibits Angiogenesis (Matrigel ® assay): Yes
Chicken gizzard Tpm; Table 5
  IC50: 140 µM
